In brackets after ≈: the same amount, converted by molar mass.

For one data set, the system named is Escherichia coli. Nature of the data set: Antibacterial activity against Escherichia coli ATCC 25922 by broth micro-dilution method. The format is functional.
Settings: not given
For orientation: MIC means the least concentration at which growth counts as inhibited. Consider `O=C(O)c1cccc(-c2ccc(/C=C3\S/C(=N\c4ccc(Cl)cc4)N(c4ccccc4)C3=O)o2)c1`, for which the MIC was above 200 µM.
For `O=C(O)c1cccc(-c2ccc(/C=C3\S/C(=N\c4ccccc4)N(c4cccnc4Cl)C3=O)o2)c1`, the MIC was above 200 µM.
As for `O=C(O)c1cccc(-c2ccc(/C=C3\S/C(=N\c4ccc(F)cc4)N(c4ccc(F)cc4)C3=O)o2)c1`, the MIC was above 200 µM.
`O=C(O)c1cccc(-c2ccc(/C=C3\S/C(=N\c4ccccc4)N(c4ncccc4F)C3=O)o2)c1`: the MIC was above 200 µM.
`O=C(O)c1cccc(-c2ccc(/C=C3\S/C(=N\c4ccc(Cl)cc4)N(c4ccc(Cl)cc4)C3=O)o2)c1` showed a minimum inhibitory concentration (MIC) above 200 µM.
On the same count and under the same terms, in the case of `O=C(O)c1cccc(-c2ccc(/C=C3\S/C(=N\c4ccccc4)N(c4cccnc4[N+](=O)[O-])C3=O)s2)c1` it was above 200 µM; in that of `O=C(O)c1cccc(-c2ccc(/C=C3\S/C(=N\c4ccccc4)N(c4ccc(Cl)cc4)C3=O)s2)c1`, above 200 µM.
Compound `O=C(O)c1cccc(-c2ccc(/C=C3\S/C(=N\c4ccccc4)N(c4cccnc4Cl)C3=O)s2)c1` yielded an MIC above 200 µM.
Regarding `Cc1ncccc1N1C(=O)/C(=C/c2ccc(-c3cccc(C(=O)O)c3)s2)S/C1=N\c1ccccc1`, the MIC was above 200 µM.
In the case of `O=C(O)c1cccc(-c2ccc(/C=C3\S/C(=N\c4ccccc4)N(c4ccc(F)cc4)C3=O)o2)c1`, the MIC was above 200 µM.
On the same count and under the same terms, in the case of `COc1cccc(OC)c1C(=O)N[C@@H]1C(=O)N2[C@@H]1SC(C)(C)[C@@H]2C(=O)O` [METHICILLIN] it was above 200 µM.

Another data set relates to Staphylococcus epidermidis. Nature of the data set: Bactericidal activity against Staphylococcus epidermidis ATCC 35984. As to conditions: RP62A. The format is functional.
Usually MBC stands for the smallest concentration meeting the test's criterion for killing. `O=C(O)c1cccc(-c2ccc(/C=C3\S/C(=N\c4ccc(Cl)cc4)N(c4ccccc4)C3=O)o2)c1` gave an MBC of 100 µM (≈ 50.1 µg/mL).
Same read-out and setting: in the case of `O=C(O)c1cccc(-c2ccc(/C=C3\S/C(=N\c4ccccc4)N(c4cccnc4Cl)C3=O)o2)c1` it was 50 µM (≈ 25.1 µg/mL); in that of `O=C(O)c1cccc(-c2ccc(/C=C3\S/C(=N\c4ccc(F)cc4)N(c4ccc(F)cc4)C3=O)o2)c1`, above 200 µM; in that of `O=C(O)c1cccc(-c2ccc(/C=C3\S/C(=N\c4ccccc4)N(c4ncccc4F)C3=O)o2)c1`, above 200 µM.
On the same count and under the same terms, the same measure for `O=C(O)c1cccc(-c2ccc(/C=C3\S/C(=N\c4ccc(Cl)cc4)N(c4ccc(Cl)cc4)C3=O)o2)c1`: above 200 µM; for `O=C(O)c1cccc(-c2ccc(/C=C3\S/C(=N\c4ccccc4)N(c4cccnc4[N+](=O)[O-])C3=O)s2)c1`: 12.6 µM (≈ 6.66 µg/mL); for `O=C(O)c1cccc(-c2ccc(/C=C3\S/C(=N\c4ccccc4)N(c4ccc(Cl)cc4)C3=O)s2)c1`: 25 µM (≈ 12.9 µg/mL).
In turn, `O=C(O)c1cccc(-c2ccc(/C=C3\S/C(=N\c4ccccc4)N(c4cccnc4Cl)C3=O)s2)c1` registered a minimal bactericidal concentration (MBC) of 6.3 µM (≈ 3.26 µg/mL).
On the same count and under the same terms, in the case of `Cc1ncccc1N1C(=O)/C(=C/c2ccc(-c3cccc(C(=O)O)c3)s2)S/C1=N\c1ccccc1` it was 100 µM (≈ 49.8 µg/mL).
In the case of `O=C(O)c1cccc(-c2ccc(/C=C3\S/C(=N\c4ccccc4)N(c4ccc(F)cc4)C3=O)o2)c1`, the MBC came to 50 µM (≈ 24.2 µg/mL).
Compound `COc1cccc(OC)c1C(=O)N[C@@H]1C(=O)N2[C@@H]1SC(C)(C)[C@@H]2C(=O)O` [METHICILLIN] yielded an MBC above 200 µM.

The next data set has as its system Staphylococcus epidermidis. Briefly: Antibacterial activity against Staphylococcus epidermidis ATCC 35984 by broth micro-dilution method. Type of data set: functional. As to conditions: RP62A. (In general: Dilution methods test growth across graded concentrations, often in twofold steps.)
The compound `O=C(O)c1cccc(-c2ccc(/C=C3\S/C(=N\c4ccc(Cl)cc4)N(c4ccccc4)C3=O)o2)c1` returned an MIC of 6.25 µM (≈ 3.13 µg/mL).
With `O=C(O)c1cccc(-c2ccc(/C=C3\S/C(=N\c4ccccc4)N(c4cccnc4Cl)C3=O)o2)c1`, the MIC came to 3.13 µM (≈ 1.57 µg/mL).
On the same count and under the same terms, the same measure for `O=C(O)c1cccc(-c2ccc(/C=C3\S/C(=N\c4ccc(F)cc4)N(c4ccc(F)cc4)C3=O)o2)c1`: 100 µM (≈ 50.2 µg/mL); for `O=C(O)c1cccc(-c2ccc(/C=C3\S/C(=N\c4ccccc4)N(c4ncccc4F)C3=O)o2)c1`: 12.5 µM (≈ 6.07 µg/mL).
Still for that read-out and setting: in the case of `O=C(O)c1cccc(-c2ccc(/C=C3\S/C(=N\c4ccc(Cl)cc4)N(c4ccc(Cl)cc4)C3=O)o2)c1` it was 25 µM (≈ 13.4 µg/mL).
`O=C(O)c1cccc(-c2ccc(/C=C3\S/C(=N\c4ccccc4)N(c4cccnc4[N+](=O)[O-])C3=O)s2)c1` yielded an MIC of 1.56 µM (≈ 0.825 µg/mL).
Same read-out and setting: the same measure for `O=C(O)c1cccc(-c2ccc(/C=C3\S/C(=N\c4ccccc4)N(c4ccc(Cl)cc4)C3=O)s2)c1`: 1.56 µM (≈ 0.807 µg/mL); for `O=C(O)c1cccc(-c2ccc(/C=C3\S/C(=N\c4ccccc4)N(c4cccnc4Cl)C3=O)s2)c1`: 1.56 µM (≈ 0.808 µg/mL); for `Cc1ncccc1N1C(=O)/C(=C/c2ccc(-c3cccc(C(=O)O)c3)s2)S/C1=N\c1ccccc1`: 12.5 µM (≈ 6.22 µg/mL).
Still for that read-out and setting: the same measure for `O=C(O)c1cccc(-c2ccc(/C=C3\S/C(=N\c4ccccc4)N(c4ccc(F)cc4)C3=O)o2)c1`: 25 µM (≈ 12.1 µg/mL).
Same read-out and setting: in the case of `COc1cccc(OC)c1C(=O)N[C@@H]1C(=O)N2[C@@H]1SC(C)(C)[C@@H]2C(=O)O` [METHICILLIN] it was 3.13 µM (≈ 1.19 µg/mL).

In the next data set the test system is Staphylococcus aureus. Briefly: Antibacterial activity against methicillin-resistant Staphylococcus aureus 8282 by broth micro-dilution method.
Settings: not given
The format is functional.
`O=C(O)c1cccc(-c2ccc(/C=C3\S/C(=N\c4ccc(Cl)cc4)N(c4ccccc4)C3=O)o2)c1`: the MIC came out at 6.25 µM (≈ 3.13 µg/mL).
Same read-out and setting: in the case of `O=C(O)c1cccc(-c2ccc(/C=C3\S/C(=N\c4ccccc4)N(c4cccnc4Cl)C3=O)o2)c1` it was 6.25 µM (≈ 3.14 µg/mL); in that of `O=C(O)c1cccc(-c2ccc(/C=C3\S/C(=N\c4ccc(F)cc4)N(c4ccc(F)cc4)C3=O)o2)c1`, 100 µM (≈ 50.2 µg/mL); in that of `O=C(O)c1cccc(-c2ccc(/C=C3\S/C(=N\c4ccccc4)N(c4ncccc4F)C3=O)o2)c1`, 12.5 µM (≈ 6.07 µg/mL).
Still for that read-out and setting: in the case of `O=C(O)c1cccc(-c2ccc(/C=C3\S/C(=N\c4ccc(Cl)cc4)N(c4ccc(Cl)cc4)C3=O)o2)c1` it was 25 µM (≈ 13.4 µg/mL).
The same measure, in the same setting: in the case of `O=C(O)c1cccc(-c2ccc(/C=C3\S/C(=N\c4ccccc4)N(c4cccnc4[N+](=O)[O-])C3=O)s2)c1` it was 3.13 µM (≈ 1.65 µg/mL); in that of `O=C(O)c1cccc(-c2ccc(/C=C3\S/C(=N\c4ccccc4)N(c4ccc(Cl)cc4)C3=O)s2)c1`, 3.13 µM (≈ 1.62 µg/mL).
With `O=C(O)c1cccc(-c2ccc(/C=C3\S/C(=N\c4ccccc4)N(c4cccnc4Cl)C3=O)s2)c1`, the MIC came to 3.13 µM (≈ 1.62 µg/mL).
Same read-out and setting: in the case of `Cc1ncccc1N1C(=O)/C(=C/c2ccc(-c3cccc(C(=O)O)c3)s2)S/C1=N\c1ccccc1` it was 12.5 µM (≈ 6.22 µg/mL); in that of `O=C(O)c1cccc(-c2ccc(/C=C3\S/C(=N\c4ccccc4)N(c4ccc(F)cc4)C3=O)o2)c1`, 25 µM (≈ 12.1 µg/mL); in that of `COc1cccc(OC)c1C(=O)N[C@@H]1C(=O)N2[C@@H]1SC(C)(C)[C@@H]2C(=O)O` [METHICILLIN], 100 µM (≈ 38 µg/mL).

System in another data set: not listed separately
Nature of the data set: Hemolytic activity in human erythrocytes at 200 uM. The format is ADME, cell-based. As to conditions: erythrocyte.
`O=C(O)c1cccc(-c2ccc(/C=C3\S/C(=N\c4ccc(Cl)cc4)N(c4ccccc4)C3=O)o2)c1`: the Activity entry is recorded as “Non-toxic”.
With `O=C(O)c1cccc(-c2ccc(/C=C3\S/C(=N\c4ccccc4)N(c4cccnc4Cl)C3=O)o2)c1`, the Activity entry was “Non-toxic”.
Turning to `O=C(O)c1cccc(-c2ccc(/C=C3\S/C(=N\c4ccc(F)cc4)N(c4ccc(F)cc4)C3=O)o2)c1`, the Activity result was “Non-toxic”.
Still for that read-out and setting: the same measure for `O=C(O)c1cccc(-c2ccc(/C=C3\S/C(=N\c4ccccc4)N(c4ncccc4F)C3=O)o2)c1`: “Non-toxic”; for `O=C(O)c1cccc(-c2ccc(/C=C3\S/C(=N\c4ccc(Cl)cc4)N(c4ccc(Cl)cc4)C3=O)o2)c1`: “Non-toxic”; for `O=C(O)c1cccc(-c2ccc(/C=C3\S/C(=N\c4ccccc4)N(c4cccnc4[N+](=O)[O-])C3=O)s2)c1`: “Non-toxic”.
Take `O=C(O)c1cccc(-c2ccc(/C=C3\S/C(=N\c4ccccc4)N(c4ccc(Cl)cc4)C3=O)s2)c1`: the Activity result is on record as “Non-toxic”.
Consider `O=C(O)c1cccc(-c2ccc(/C=C3\S/C(=N\c4ccccc4)N(c4cccnc4Cl)C3=O)s2)c1`, for which the Activity entry is listed as “Non-toxic”.
On the same count and under the same terms, the same measure for `Cc1ncccc1N1C(=O)/C(=C/c2ccc(-c3cccc(C(=O)O)c3)s2)S/C1=N\c1ccccc1`: “Non-toxic”; for `O=C(O)c1cccc(-c2ccc(/C=C3\S/C(=N\c4ccccc4)N(c4ccc(F)cc4)C3=O)o2)c1`: “Non-toxic”; for `COc1cccc(OC)c1C(=O)N[C@@H]1C(=O)N2[C@@H]1SC(C)(C)[C@@H]2C(=O)O` [METHICILLIN]: “Non-toxic”.

System in the next data set: not listed separately
Briefly: Cytotoxicity against African green monkey Vero cells. As to conditions: chlorocebus sabaeus. Type of data set: cell-based.
A word on the CC50: it is the concentration that lowers cell viability or growth by half. `O=C(O)c1cccc(-c2ccc(/C=C3\S/C(=N\c4ccc(Cl)cc4)N(c4ccccc4)C3=O)o2)c1` registered a CC50 above 200 µM.
Compound `O=C(O)c1cccc(-c2ccc(/C=C3\S/C(=N\c4ccccc4)N(c4cccnc4Cl)C3=O)o2)c1` displayed a CC50 above 200 µM.
On to `O=C(O)c1cccc(-c2ccc(/C=C3\S/C(=N\c4ccc(F)cc4)N(c4ccc(F)cc4)C3=O)o2)c1`, for which the CC50 was above 200 µM.
Regarding `O=C(O)c1cccc(-c2ccc(/C=C3\S/C(=N\c4ccccc4)N(c4ncccc4F)C3=O)o2)c1`, the CC50 is above 200 µM.
The compound `O=C(O)c1cccc(-c2ccc(/C=C3\S/C(=N\c4ccc(Cl)cc4)N(c4ccc(Cl)cc4)C3=O)o2)c1` registered a CC50 above 200 µM.
Take `O=C(O)c1cccc(-c2ccc(/C=C3\S/C(=N\c4ccccc4)N(c4cccnc4[N+](=O)[O-])C3=O)s2)c1`: the CC50 was above 200 µM.
The same measure, in the same setting: in the case of `O=C(O)c1cccc(-c2ccc(/C=C3\S/C(=N\c4ccccc4)N(c4ccc(Cl)cc4)C3=O)s2)c1` it was above 200 µM; in that of `O=C(O)c1cccc(-c2ccc(/C=C3\S/C(=N\c4ccccc4)N(c4cccnc4Cl)C3=O)s2)c1`, above 200 µM.
Same read-out and setting: in the case of `Cc1ncccc1N1C(=O)/C(=C/c2ccc(-c3cccc(C(=O)O)c3)s2)S/C1=N\c1ccccc1` it was above 200 µM; in that of `O=C(O)c1cccc(-c2ccc(/C=C3\S/C(=N\c4ccccc4)N(c4ccc(F)cc4)C3=O)o2)c1`, above 200 µM.
Consider `COc1cccc(OC)c1C(=O)N[C@@H]1C(=O)N2[C@@H]1SC(C)(C)[C@@H]2C(=O)O` [METHICILLIN], for which the CC50 is above 200 µM.

(Values after ChEMBL document CHEMBL3792342, “Synthesis and biological evaluation of 2-arylimino-3-pyridin-thiazolineone derivatives as antibacterial agents” (Bioorg Med Chem Lett, 2016).)
